{"source": "patent US20150306011A1", "about": "“METHODS FOR USING SOY PEPTIDES TO INHIBIT H3 ACETYLATION, REDUCE EXPRESSION OF HMG-COA REDUCTASE AND INCREASE LDL RECEPTOR AND SP1 EXPRESSION IN A MAMMAL” (priority 2014, published 2015)", "key": {"[1]": {"tested_on": "histone H3 acetylation by PCAF", "assay": "PCAF histone acetylase (HAT) assay, core histones from HeLa cells as template, immunoblot", "assay_type": "biochemical", "description": "Acid extracted protein from untreated (untrt) HeLa cells was used as template in histone acetylase reactions using HAT enzyme, PCAF, in the presence or absence of 10 uM lunasin. Reaction products were immunoblotted and stained with antibodies against diacetylated histone H3. Untrt (−) is the histone template control, NaB (+) correspond to acid extracted histones from NaButyrate treated HeLa cells (positive control). […] Numbers in parenthesis indicate densitometer readings relative to the untreated control (set as 1) in PCAF HAT reaction products.\nAcid extracted histones isolated from untreated (untrt) HeLa cells were used in PCAF HAT reactions, immunoblotted and stained with antibodies to H3 Ac-Lys9 and H3 Ac-Lys14. Untrt (−) is the histone template control, NaB (+) correspond to acid extracted histones from NaButyrate treated HeLa cells (posititve control), +Lun correspond to 10 uM lunasin treated histone template and −Lun correspond to non-lunasin treated. […] Numbers in parenthesis indicate densitometer readings relative to the signal level of lunasin/lunasin treatment (set as 1) in immunoblots stained with Ac-Lys14 H3.\n[…] H3 histone acetylation by PCAF histone acetylase enzyme is required for the SREBP activation of genes involved in cholesterol biosynthesis including HMG-CoA reductase (9). Previous study has shown that lunasin is a potent inhibitor of histone H3 acetylation in mammalian cells exposed to the histone deacetylase inhibitor, sodium butyrate (NaB) (4). To determine the effect of lunasin on histone H3 acetylation by PCAF, HAT assay reaction using acid-extracted histones from untreated HeLa cells as template was conducted. […]\nThe HAT bioactivity assay was conducted using acid extracted core histones from HeLa cells (Upstate/Millipore) as a template (temp (−) control) for the PCAF catalyzed HAT reaction. […] The numbers below the legend indicate relative densitometer readings normalized using immunosignal from the template (temp). […]"}, "[2]": {"tested_on": "Sp1 expression in HepG2 cells", "assay": "Western blot of Sp1 levels in HepG2 cells", "assay_type": "cell-based", "conditions": "10 uM synthetic lunasin, one experiment", "description": "FIG. 4 is a photograph of a Western blot analysis (top) and a table (below) showing densitometer values indicating the relative levels of expression of Sp1 in HepG2 cells that were grown from confluence in growth media for 24 hours before growth media was replaced with fresh growth media (Media), media with lunasin (Media+LS) or cholesterol free media with lunasin (CFM+LS) or without lunasin (CFM). Samples were then incubated for 24 or 48 hours as indicated. […]\nUnlike HMG-CoA reductase, SREBP activation of LDL-receptor by sterol depletion requires increased recruitment of Sp1 co-activator to a site adjacent to SREBP in the promoter/regulatory sequence of LDL-receptor gene (25). […] To test this hypothesis, the level of Sp1 was determined in lunasin-treated growth media and cholesterol-free media by Western analysis using Sp1 antibody, as follows: HepG2 cells (1×10^6) were grown from confluence in DMEM with 10% FBS for 24 hours before growth media was replaced with fresh growth media or cholesterol-free media (to activate SREBP) and treated with, or without 10 uM synthetic lunasin. […]"}, "[3]": {"conditions": "cited from earlier work"}, "[4]": {"tested_on": "histone H3 acetylation by PCAF", "assay": "PCAF HAT bioactivity assay, core histones from chicken erythrocyte as template", "assay_type": "biochemical", "conditions": "around 10 ug sample protein with 1 ug core histones; versus untreated control", "description": "Lunasin-enriched soy concentrate with soy flour (LeSC+SF) retains bioactivity even when digested with digestive enzymes. Biological activity of LeSC (A), LeSC+SF (B), digested LeSC+SF (C), digested LeSC (D), digested soy protein isolate (E) and digested soy concentrate (F) was measured using the H3 histone acetyltransferase (HAT) assay (see Example 8.) Around 100 mg total protein of LeSC, LeSC+SF, soy protein isolate and soy concentrate were digested by mixing pancreatin (Sigma Life Sciences, Saint Louis, Mo.) at 1:1 (w/w) and incubating for 30 min. at 40° C. To confirm that the HAT assay is working, treatment with synthetic lunasin (+synL) was included. Synthetic lunasin reduced acetylation of histone H3 by the histone acetylase enzyme, PCAF, using core histones isolated from chicken erythrocyte (Upstate/Millipore, Billerica, Mass.) as template for the HAT assay. […]\nCore histones purified from chicken erythrocyte cells were used as templates in histone acetylase (HAT) reactions using PCAF histone acetylase enzyme, in the presence or absence of around 2-10 uM lunasin. […] Chemiluminescent signals from antibody complexes were visualized using standard chemiluminescent reagents and exposed to Kodak BioMAX film, developed and spot densitometer measured by using digital scanner and UN-SCAN-IT software program from Silk Scientific (Orem, Utah)."}, "[5]": {"tested_on": "LDL-receptor expression in HepG2 cells", "assay": "Western blot of LDL receptor expression in HepG2 cells in cholesterol-free media", "assay_type": "cell-based", "conditions": "10 uM synthetic lunasin, 24 hours, cholesterol-free media 24 hours", "description": "(§1) FIG. 3 is a photograph of a Western blot analysis (top) and a table (below) showing densitometer values indicating the relative levels of expression of LDL receptor in HepG2 cells that were (CFM +LS(24)) or were not (CFM) treated with lunasin for 24 hours prior to incubation in cholesterol free media (CFM) for 24 hours to activate SREBP. After incubations, total protein was extracted and 10 ug protein was loaded onto 10% Tris-glycine gels, electroblotted onto nitrocellulose membrane, and immunostained with primary antibodies raised against LDL-receptor and actin (to show equal loading of proteins.) Spot densitometer values represent mean and standard deviation of data from three separate experiments.\nIn the second experiment, HepG2 cells (1×10^6) were treated with or without 10 uM synthetic lunasin in DMEM with 10% FBS for 24 hours before growth media is replaced with cholesterol-free media to activate SREBP. After 24 hours, total protein was extracted and 10 ug proteins loaded onto 10% Tris-glycine gels, electroblotted onto nitrocellulose membrane, and immunostained with primary antibodies raised against LDL-receptor and actin (to show equal loading of proteins). Spot densitometer values were obtained by digital scanning and Un-Scan It software, and represent mean and standard deviation of data from three separate experiments."}, "[6]": {"tested_on": "HMG-CoA reductase expression in HepG2 cells", "assay": "Western blot of HMG-CoA reductase expression in HepG2 cells in cholesterol-free media", "assay_type": "cell-based", "conditions": "10 uM synthetic lunasin, 24 hours, cholesterol-free media 24 hours", "description": "as §1, with “2” for “3”, “HMG-CoA reductase” for “LDL receptor”, “(CFM+LS (24))” for “(CFM +LS(24))”, “sterol regulatory element binding proteins (SREBP.)” for “SREBP.”, “HMG-CoA reductase” for “LDL-receptor”\nIn the first experiment, HepG2 cells (1×10^6) were treated with or without 10 uM synthetic lunasin in DMEM with 10% FBS for 24 hours before growth media was replaced with cholesterol-free media to activate SREBP. After 24 hours, total protein was extracted and 10 ug protein was loaded onto 10% Tris-glycine gels, electroblotted onto nitrocellulose membrane, and immunostained with primary antibodies raised against HMG-CoA reductase and actin (to show equal loading of proteins). […]"}, "[7]": {"tested_on": "tumor formation in mammalian cells", "conditions": "1,000 nM (5 μg/ml) to 10,000 nM (50 μg/ml) lunasin; cited from earlier work"}, "[8]": {"conditions": "10 uM lunasin, acid-extracted histones from untreated HeLa cells"}}, "note": "“Also recorded” adds a separate entry of the source."}
{"substance": "lunasin: natural, synthetically or recombinantly obtained soybean lunasin polypeptide (SEQ. ID. 2), small subunit of a cotyledon-specific 2S albumin", "values": [{"measurement": "H3 Lys 14 acetylation by PCAF (antibodies to H3 Ac-Lys9 and H3 Ac-Lys14)", "setting": "[1]; [8]", "value": "decreased H3 Lys 14 acetylation; also recorded: specifically binds to Lys 14, preventing it from being acetylated by PCAF"}, {"measurement": "histone H3 acetylation (diacetylated H3, Ac-Lys9+Ac-Lys14) by PCAF", "setting": "[1]; [8]", "value": "significant decrease in H3 acetylation; also recorded: dramatic reduction of histone H3 acetylation"}, {"measurement": "H3 acetylation by PCAF, undigested samples (Example 6)", "setting": "[1]; core histones from HeLa cells as template", "value": "significant reduction in H3 acetylation"}, {"measurement": "increase of Sp1 levels in cholesterol-free media", "setting": "[2]; cholesterol-free media", "value": "~60", "unit": "%"}, {"measurement": "Sp1 levels, lunasin-treated versus control growth media", "setting": "[2]; growth media", "value": "not significantly different"}, {"measurement": "water solubility", "setting": "[3]", "value": "water soluble"}, {"measurement": "H3 acetylation by PCAF, undigested samples (Example 5)", "setting": "[4]", "value": "significant reduction in H3 acetylation"}, {"measurement": "increase of LDL-receptor expression", "setting": "[5]", "value": "more than 60%"}, {"measurement": "reduction of HMG-CoA reductase expression", "setting": "[6]", "value": "more than 50%"}, {"measurement": "tumor reduction activity compared to the control group", "setting": "[7]", "value": "statistically significant tumor reduction activity"}]}
